According to ChEMBL document CHEMBL1128136, “and -N-[(1-benzyl-1H-imidazol-5-yl)-alkyl]-amino acids as angiotensin II AT-1 antagonists” (Bioorg Med Chem Lett, 1995):

How the values were obtained:
Oryctolagus cuniculus [1] = organism: Oryctolagus cuniculus; test: Compound was tested for inhibition of Angiotensin II-induced vasoconstriction of rabbit aorta.; type: functional
[2] = target: T1, Angiotensin II receptor (AT-1) type-1 (Rattus norvegicus, UniProt P29089+P25095); test: Compound was tested for inhibition of 125 I-Angiotensin II specific binding to rat mesenteric arteries; type: protein assay
T1 sequence (P29089 whole entry): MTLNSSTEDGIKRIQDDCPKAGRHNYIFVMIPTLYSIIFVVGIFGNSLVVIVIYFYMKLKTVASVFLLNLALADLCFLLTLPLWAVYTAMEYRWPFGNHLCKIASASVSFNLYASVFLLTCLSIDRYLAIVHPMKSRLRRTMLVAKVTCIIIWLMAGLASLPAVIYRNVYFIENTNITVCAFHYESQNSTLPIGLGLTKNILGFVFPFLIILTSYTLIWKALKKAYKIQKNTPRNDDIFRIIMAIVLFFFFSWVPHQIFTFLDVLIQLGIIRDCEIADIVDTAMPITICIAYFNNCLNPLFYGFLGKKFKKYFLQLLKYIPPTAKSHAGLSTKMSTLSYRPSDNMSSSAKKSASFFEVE
T1 sequence (P25095 whole entry): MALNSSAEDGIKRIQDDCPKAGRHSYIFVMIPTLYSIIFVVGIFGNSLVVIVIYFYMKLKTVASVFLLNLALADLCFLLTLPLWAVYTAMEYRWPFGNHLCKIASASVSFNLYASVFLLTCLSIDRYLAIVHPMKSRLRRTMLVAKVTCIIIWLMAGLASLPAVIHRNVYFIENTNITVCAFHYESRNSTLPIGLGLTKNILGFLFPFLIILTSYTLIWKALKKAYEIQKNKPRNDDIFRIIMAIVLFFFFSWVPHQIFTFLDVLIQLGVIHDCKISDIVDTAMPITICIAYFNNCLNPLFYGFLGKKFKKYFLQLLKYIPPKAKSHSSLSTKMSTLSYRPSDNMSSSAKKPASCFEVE

[3] = target: T2, Type-1 angiotensin II receptor (Homo sapiens, UniProt P30556); test: Tested for inhibition of Angiotensin II specific binding to Angiotensin II receptor, type 1 in the recombinant human AT-1 receptor expressed in LhAT-1D6 cells; type: cell-based
T2 sequence (P30556 whole entry): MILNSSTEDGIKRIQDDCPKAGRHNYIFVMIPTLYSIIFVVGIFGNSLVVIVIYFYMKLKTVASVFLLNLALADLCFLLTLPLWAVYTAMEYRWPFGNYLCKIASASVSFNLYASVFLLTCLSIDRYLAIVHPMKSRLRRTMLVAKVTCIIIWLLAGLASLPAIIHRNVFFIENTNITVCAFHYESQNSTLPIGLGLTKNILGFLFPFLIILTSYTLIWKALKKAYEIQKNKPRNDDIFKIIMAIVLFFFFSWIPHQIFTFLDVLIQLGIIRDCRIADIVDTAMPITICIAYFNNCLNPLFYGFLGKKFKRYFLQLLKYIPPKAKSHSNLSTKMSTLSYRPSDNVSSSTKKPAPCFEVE

Oryctolagus cuniculus [4] = organism: Oryctolagus cuniculus; test: Compound was tested for Non-competitive inhibition ofAngiotensin II -induced vasoconstriction of rabbit aorta.; type: functional

IC50 [2] | IC50 [3] | SMILES | Kb (Oryctolagus cuniculus [1]) | Kb (Oryctolagus cuniculus [4])
3.8 nM | – | CCCCc1ncc(CN[C@H](Cc2ccccc2)C(=O)O)n1Cc1ccc(C(=O)O)cc1 | 3.6 nM | –
– | 48.3 nM | CCCCc1ncc(CN[C@@H](Cc2c[nH]c3ccccc23)C(=O)O)n1Cc1ccc(C(=O)O)cc1 | 885 nM | –
176 nM | – | CCCCc1ncc(CN[C@H](C(=O)O)C(C)c2ccccc2)n1Cc1ccc(C(=O)O)cc1 (stereo partly drawn) | 117 nM | –
– | 298 nM | CCCCc1ncc(CNCC(=O)O)n1Cc1ccc(C(=O)O)cc1 | 335 nM | –
673 nM | – | CCCCc1ncc(CN[C@@H](Cc2cccs2)C(=O)O)n1Cc1ccc(C(=O)O)cc1 | 63 nM | –
169 nM | – | CCCCc1ncc(CN(CC(=O)O)Cc2cccs2)n1Cc1ccc(C(=O)O)cc1 | 2.4 nM | –
36.7 nM | – | CCCCc1ncc(CN[C@H](Cc2cccs2)C(=O)O)n1Cc1ccc(C(=O)O)cc1 | 5 nM | –
– | 2.9 nM | CCCCc1ncc(CN[C@H](Cc2c[nH]c3ccccc23)C(=O)O)n1Cc1ccc(C(=O)O)cc1 | 48 nM | –
28 nM | – | CCCCc1ncc(CN[C@@H](C(=O)O)C(C)c2ccccc2)n1Cc1ccc(C(=O)O)cc1 (stereo partly drawn) | – | 0.6 nM
517 nM | – | CCCCc1ncc(CN[C@@H](Cc2ccccc2)C(=O)O)n1Cc1ccc(C(=O)O)cc1 | 125 nM | –
31 nM | – | CCCCc1ncc(CN(CC(=O)O)Cc2ccccc2)n1Cc1ccc(C(=O)O)cc1 | 11 nM | –
– | – | CCCCc1ncc(/C=C(\Cc2cccs2)C(=O)O)n1Cc1ccc(C(=O)O)cc1 [EPROSARTAN] | 0.21 nM | –
